Laboratory results as given in patent US12319929B2, “Compositions and methods for the treatment of Parkinson's disease” (VOYAGER THERAPEUTICS, INC., priority 2018, dated 2025).

Test system: patients with motor response fluctuations
Experiment: UPDRS III AUC response to threshold and suprathreshold IV levodopa infusion
Format: in vivo, human
Conditions: Baseline before AAV2-hAADC
Method: On sequential days, patients received either a threshold (0.6 mg/mL; low-dose) or suprathreshold (1.2 mg/mL; high-dose) infusion of IV levodopa dosed at 1 mL/kg/hr for 2 hours. The order and threshold of IV levodopa dosing was randomized and double-blinded (LHLH, LHHL, HLHL, HLLH).
Oral carbidopa (25 mg) was administered 1-2 hours before, during, and 1-2 hours after the infusion. Participants' motor response was measured by UPDRS III (time to 30% change and duration of 30% responses); bradykinesia was measured by finger tapping rate; and dyskinesia was measured by Abnormal Involuntary Movement Scale (AIMS) scoring. Pharmacokinetics were assessed every 30 minutes after administration of IV levodopa.
Results for Group 1 are shown in FIG. 12a: results for Group 2 are shown in FIG. 12b; and results for Group 3 are shown in FIG. 12c.

For `N[C@@H](Cc1ccc(O)c(O)c1)C(=O)O` [IV Levodopa, L-3,4-dihydroxyphenylalanine], the “UPDRS III AUC, mean (standard error)” value (Suprathreshold (1.2 mg/kg/hr) IV Levodopa, Group 1 (N = 5)) was −72.8 (13.1), the “UPDRS III AUC, mean (standard error)” value (Suprathreshold (1.2 mg/kg/hr) IV Levodopa, Group 2 (N = 5)) was −45.0 (13.5) and the “UPDRS III AUC, mean (standard error)” value (Suprathreshold (1.2 mg/kg/hr) IV Levodopa, Group 3 (N=3)) was −41.1 (13.8). The “UPDRS III AUC, mean (standard error)” value (Threshold (0.6 mg/kg/hr) IV Levodopa, Group 1 (N = 5)) was −22.1 (9.7), the “UPDRS III AUC, mean (standard error)” value (Threshold (0.6 mg/kg/hr) IV Levodopa, Group 2 (N = 5)) was −21.8 (5.9) and the “UPDRS III AUC, mean (standard error)” value (Threshold (0.6 mg/kg/hr) IV Levodopa, Group 3 (N=3)) was −16.1 (11.4).
